“And” between values parts separate entries of the source, which are not always exact repeats. Equal entries are not always repeated. “Also recorded” adds a separate entry of the source. Where no end group is shown, it is not given here.
How the values were obtained:
[1] = tested on: full-length Notch1-expressing 32D cells; assay: G-CSF-induced granulocytic differentiation of full-length Notch1-expressing 32D myeloid progenitor clones in the presence of hJAGGED1 peptides; assay type: cell-based, mouse; conditions: 10 μM peptide, 20 ng/ml G-CSF, FIG. 4
Experimental: The ability of the hJAGGED1 HS-27a human stromal cell line to effect differentiation of hematopoietic progenitors was analyzed using the interleukin-3 (IL-3)-dependent myeloid cell line, 32D. The 32D cell line, which was derived from normal mouse bone marrow, is a heterogeneous cell line with individual cells having characteristics of myeloid cells at various early stages of maturation. 32D cells proliferate as undifferentiated blasts in the presence of IL-3, but differentiate into mature granulocytes when stimulated with granulocyte colony stimulating factor (G-CSF; Valtieri et al. Immunol. 138:3829-3835 (1987), which is incorporated herein by reference), thereby providing a system for analyzing factors that may affect myeloid differentiation.
The HS-27a, HS-23 and HS-5 human stromal cell lines were maintained in RPMI containing 10% FCS as described in Roecklein and Torok-Storb, supra, 1995. 32D cells were maintained in Iscove's Modified Dulbecco's Medium (IMDM) with 10% fetal bovine serum (FBS) and 10% WCM as a source of IL-3. For differentiation experiments, 32D cell lines were harvested in log phase, washed, counted, and replated at constant density (2×10^5 cells/ml, 4 ml/well) in 6-well plates in IMDM, 10% FBS, 0.5% WCM and 20 ng/ml recombinant human G-CSF from Amgen (Thousand Oaks, Calif.). Aliquots of […] were removed daily for analysis and replaced with fresh media. Viable cells were counted, and Wright stained cytospins were evaluated for granulocytic differentiation as follows. […] Criteria for granulocytic differentiation included nuclear segmentation, an increased cytoplasmic to nuclear ratio, and increased eosinophilia and granularity of the cytoplasm. […]
Three peptides corresponding to different regions of the hJAGGED1 molecule were analyzed for their effect on differentiation of Notch1-expressing 32D cells treated with G-CSF. […]
Peptide SEQ ID NO:9 (“J-A”) has the sequence […]. […] Differentiation of 32D cells in the presence of hJAGGED peptides was analyzed as described above. […]

[2] = tested on: mouse hematopoietic progenitor cells (Sca-1+ lin-); assay: Number of G-CFU formed from mouse hematopoietic progenitor cells treated with G-CSF and cell culture supernatant; assay type: cell-based; conditions: for Number of CFU-G-CSF, Average: average of samples 1-4, control BHK supernatant about 60
Experimental: A soluble fragment of hJAGGED1 (SEQ ID NO:7), which contains the extracellular domain of hJAGGED1 including the signal peptide, DSL region, EGF-like repeats and cysteine-rich region, was prepared by amplifying a portion of the hJAGGED1 cDNA with PCR primers 420 (SEQ ID NO:20; […]) and 421 (SEQ ID NO:21; […]). The hJAGGED1 cDNA fragment, corresponding to residues 1 to 1010, was subcloned into expression vector pDX to generate pDX-hJg1.Ex. After transfection into BHK and COS cells, the cell culture supernatant was assayed for the ability to effect the number of G-CFU formed from mouse hematopoietic progenitor cells ([…] lin^−), which were prepared by removing cells that stained with anti-Gr-1, anti-CD4, anti-CD11b, anti-CD2, anti-CD45R and anti-Ter-119 and then positively selecting Sca-1^+ cells with anti-Sca-1.

## CDDYYYGFGCNKFCRPR (cysteine pairing not given here) [peptide SEQ ID NO:9, 17-mer, residues 188 to 204 of hJAGGED1, portion of the DSL domain]
[1]
  differentiation of full-length Notch1-expressing 32D clones in the presence of G-CSF and peptide: significantly inhibited

## CRQGCSPKHGSCKLPGDCRCQYG [peptide SEQ ID NO:10, residues 235 to 257 of hJAGGED1, part of EGF-repeat 1 in the extracellular domain]
[1]
  differentiation of full-length Notch1-expressing 32D clones in the presence of G-CSF and peptide: comparable to that observed with G-CSF alone; also recorded: unaffected

## KRRKPGSHTHSASEDNTTN [peptide SEQ ID NO:11, residues 1096 to 1114 of hJAGGED1, hydrophilic portion of the intracellular domain]
[1]
  differentiation of full-length Notch1-expressing 32D clones in the presence of G-CSF and peptide: comparable to that observed with G-CSF alone; also recorded: unaffected

## hJAGGED1 fragment SEQ ID NO:7: soluble fragment of hJAGGED1, residues 1 to 1010 (extracellular domain), tested as supernatant of transfected BHK cells
[2]; Sca-1+ lin- cells treated with G-CSF, listed as Supernatant of BHK cells transfected with pDX-hJg1.Ex
  Number of CFU-G-CSF, Average: 24
[2]; Sca-1+ lin- cells treated with G-CSF, listed as supernatant from BHK cells transfected with the hJAGGED1 extracellular domain co
  Number of CFU-G-CSF, Average: about 24
[2]; conclusion from Table 2
  granulocytic differentiation of mouse hematopoietic progenitor cells: inhibits granulocytic differentiation
[2]; individual samples, Sca-1+ lin- cells treated with G-CSF, BHK cell supernatant, listed as Supernatant of BHK cells transfected with pDX-hJg1.Ex
  Number of CFU-G-CSF: 19 and 34 and 20 and 23

— patent US6703198B1, “Methods of diagnosing alagille syndrome” (The University of Washington, priority 1997, dated 2004)
